Source: US9440957B2, “Compounds and compositions for modulating EGFR Activity” (Novartis AG, priority 2012, dated 2016)
Where two headings read alike, the source gives them in different places.

Tests used:
[1] = target: HaCaT (EGFR WT) (Homo sapiens, UniProt P00533); assay: EGFR target modulation in HaCaT (EGFR-WT) cell line (phospho-EGFR Y1173 ELISA); type: cell-based; conditions: value in parentheses
Experimental: EGFR Target Modulation in HaCaT (EGFR-WT) Cell Line Tissue Culture. […] The serial diluted compounds were transferred to the plate containing cells by using a 50 nl Pin Head device (Perkin Elmer) and the cells were placed back in the incubator for 3 hours. […] Phospho-EGFR ([…]) ELISA. Solid white high-binding ELISA plates (Greiner #781074) were coated with 5 ug/ml anti-EGFR capture antibody (R&D Systems #AF231) overnight in 50 mM carbonate/bicarbonate pH 9.5 buffer. […] Wash steps were carried out with a Bio-Tek ELx405 SelectTM using 4 cycles of 100 ul TBS-T (20 mM Tris, 137 mM NaCl, 0.05% Tween-20) per well. […] Lysis was allowed to occur for 20 minutes on ice. A 25 ul aliquot was added to each well of the blocked ELISA plate and incubated overnight at 4° C. with gentle shaking. […] After washing, 1:2,000 anti-rabbit-HRP (Cell Signaling #7074) in 0.2% BSA/TBS-T was added and incubated for 1 hour at room temperature. Chemiluminescent detection was carried out with SuperSignal ELISA Pico substrate (ThermoScientific #37069). Signal was read on EnVision plate reader using built-in UltraLUM setting. Data Analysis. Control cells treated with EGF were set to 100% maximum response. […] With these parameters, the IC50's for each compound in each cell line was calculated using non-linear curve fitting analysis.

[2] = target: T1, EGFR(L858R/T790M) (Homo sapiens, UniProt P00533, L858R/T790M); assay: EGFR biochemical assay (HTRF), IC50 determinations
T1 construct: purchased from Carna (GST-a.a. 669-1210)
Outline: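 Two formats were run: compound preincubated at room temperature with enzyme and biotin-TK peptide before ATP starts the reaction, or no preincubation with enzyme added last. Reactions ran 60 min at room temperature and were stopped with EDTA. Phosphopeptide was read by HTRF (PT66K/SAXL, 1 h).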

[3] = target: H1975 (EGFR L858/T790M) (Homo sapiens, UniProt P00533, L858R/T790M); assay: EGFR target modulation in H1975 cell line (phospho-EGFR Y1173 ELISA); type: cell-based
Outline: (§1)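 pY1173 was measured by sandwich ELISA with anti-EGFR capture and chemiluminescent read-out. Before lysis, each cell line (HCC827, H1975, H3255) was treated with compound for 3 hours. IC50 derived by non-linear fit, normalised to EGF-stimulated controls as maximum.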

[4] = target: H3255 (EGFR L858R) (Homo sapiens, UniProt P00533, L858R); assay: EGFR target modulation in H3255 cell line (phospho-EGFR Y1173 ELISA); type: cell-based
Outline: as §1

[5] = target: HCC827 (Del E746-A750) (Homo sapiens, UniProt P00533, DEL746-750); assay: EGFR target modulation in HCC827 cell line (phospho-EGFR Y1173 ELISA); type: cell-based
Outline: as §1

[6] = target: HEKn (EGFR WT) (Homo sapiens, UniProt P00533); assay: EGFR target modulation in HEKn (EGFR-WT) cell line (phospho-EGFR Y1173 ELISA); type: cell-based; conditions: value outside parentheses
Outline: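 Read-out was Y1173 phosphorylation, measured by chemiluminescent ELISA with anti-EGFR capture of lysates. HEKn keratinocytes (wild-type EGFR) were treated with compound for 3 h.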

[7] = EGFR (L858R/T790M) with 90 min pre-incubation, read-out: IC50 (μM) Column B
[8] = EGFR (L858R/T790M) with no pre-incubation, read-out: IC50 (μM) Column A

Sequence of H1975 (EGFR L858/T790M) (P00533 25-1210 T790M/L858R): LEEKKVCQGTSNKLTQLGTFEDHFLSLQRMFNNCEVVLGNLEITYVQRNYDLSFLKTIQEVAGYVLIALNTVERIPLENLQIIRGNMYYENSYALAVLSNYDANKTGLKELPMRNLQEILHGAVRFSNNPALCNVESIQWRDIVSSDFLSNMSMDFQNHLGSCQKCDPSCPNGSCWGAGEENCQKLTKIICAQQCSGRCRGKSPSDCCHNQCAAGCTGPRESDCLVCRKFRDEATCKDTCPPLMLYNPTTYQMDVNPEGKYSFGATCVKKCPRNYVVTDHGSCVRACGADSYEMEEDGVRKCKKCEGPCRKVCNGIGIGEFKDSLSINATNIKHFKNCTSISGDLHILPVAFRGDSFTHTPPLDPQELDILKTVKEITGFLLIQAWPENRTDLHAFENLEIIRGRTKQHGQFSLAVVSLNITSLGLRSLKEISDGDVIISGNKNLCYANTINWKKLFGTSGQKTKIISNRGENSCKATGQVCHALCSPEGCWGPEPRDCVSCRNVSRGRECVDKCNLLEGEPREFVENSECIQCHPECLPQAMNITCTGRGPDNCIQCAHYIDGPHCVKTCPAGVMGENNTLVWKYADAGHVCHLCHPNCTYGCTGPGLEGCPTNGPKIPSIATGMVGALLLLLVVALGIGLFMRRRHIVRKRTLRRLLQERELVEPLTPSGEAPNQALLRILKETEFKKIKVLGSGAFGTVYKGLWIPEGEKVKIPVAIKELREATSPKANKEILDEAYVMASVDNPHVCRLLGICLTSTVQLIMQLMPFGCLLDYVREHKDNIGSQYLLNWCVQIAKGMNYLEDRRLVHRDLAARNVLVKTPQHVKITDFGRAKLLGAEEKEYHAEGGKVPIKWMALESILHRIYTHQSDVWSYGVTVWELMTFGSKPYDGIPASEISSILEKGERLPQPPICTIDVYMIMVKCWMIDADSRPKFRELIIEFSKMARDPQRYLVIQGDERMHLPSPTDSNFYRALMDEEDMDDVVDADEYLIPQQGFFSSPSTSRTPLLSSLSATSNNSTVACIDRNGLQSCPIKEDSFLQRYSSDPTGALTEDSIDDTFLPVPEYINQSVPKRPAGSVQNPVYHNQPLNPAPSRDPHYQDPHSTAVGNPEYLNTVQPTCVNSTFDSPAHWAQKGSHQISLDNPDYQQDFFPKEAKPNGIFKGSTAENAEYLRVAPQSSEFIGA
Sequence of H3255 (EGFR L858R) (P00533 25-1210 L858R): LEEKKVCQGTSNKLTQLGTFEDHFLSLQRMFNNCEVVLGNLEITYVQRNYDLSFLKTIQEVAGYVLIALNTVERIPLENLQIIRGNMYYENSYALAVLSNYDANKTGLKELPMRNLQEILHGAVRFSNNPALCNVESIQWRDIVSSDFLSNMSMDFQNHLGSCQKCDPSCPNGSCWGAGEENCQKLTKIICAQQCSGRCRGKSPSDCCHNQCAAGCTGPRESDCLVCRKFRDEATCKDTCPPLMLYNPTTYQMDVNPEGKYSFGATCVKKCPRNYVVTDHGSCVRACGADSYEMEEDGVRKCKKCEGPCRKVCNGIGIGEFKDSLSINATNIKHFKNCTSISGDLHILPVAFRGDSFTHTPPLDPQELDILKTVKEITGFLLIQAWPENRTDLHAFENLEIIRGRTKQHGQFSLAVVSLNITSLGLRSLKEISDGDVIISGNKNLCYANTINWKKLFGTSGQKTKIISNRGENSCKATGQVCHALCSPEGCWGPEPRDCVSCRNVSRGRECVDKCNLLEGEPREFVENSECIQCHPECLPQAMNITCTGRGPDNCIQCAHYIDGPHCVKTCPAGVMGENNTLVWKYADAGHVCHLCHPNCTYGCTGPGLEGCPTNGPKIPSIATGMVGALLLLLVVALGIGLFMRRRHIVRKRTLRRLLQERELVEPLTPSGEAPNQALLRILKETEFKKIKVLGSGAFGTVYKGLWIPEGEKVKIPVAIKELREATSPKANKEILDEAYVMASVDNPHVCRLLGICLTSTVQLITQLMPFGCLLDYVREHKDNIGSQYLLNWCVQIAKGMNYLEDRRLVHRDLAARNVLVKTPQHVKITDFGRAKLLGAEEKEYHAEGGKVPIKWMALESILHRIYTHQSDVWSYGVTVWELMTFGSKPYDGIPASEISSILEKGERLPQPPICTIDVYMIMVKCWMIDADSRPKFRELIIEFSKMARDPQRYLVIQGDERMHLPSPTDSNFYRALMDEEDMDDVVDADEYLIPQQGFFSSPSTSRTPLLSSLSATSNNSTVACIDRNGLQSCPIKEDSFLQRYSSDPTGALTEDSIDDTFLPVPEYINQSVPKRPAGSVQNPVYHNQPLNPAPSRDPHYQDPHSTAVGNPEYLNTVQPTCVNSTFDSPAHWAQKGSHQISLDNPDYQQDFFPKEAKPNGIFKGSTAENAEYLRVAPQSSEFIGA
Sequence of HEKn (EGFR WT) (P00533 25-1210): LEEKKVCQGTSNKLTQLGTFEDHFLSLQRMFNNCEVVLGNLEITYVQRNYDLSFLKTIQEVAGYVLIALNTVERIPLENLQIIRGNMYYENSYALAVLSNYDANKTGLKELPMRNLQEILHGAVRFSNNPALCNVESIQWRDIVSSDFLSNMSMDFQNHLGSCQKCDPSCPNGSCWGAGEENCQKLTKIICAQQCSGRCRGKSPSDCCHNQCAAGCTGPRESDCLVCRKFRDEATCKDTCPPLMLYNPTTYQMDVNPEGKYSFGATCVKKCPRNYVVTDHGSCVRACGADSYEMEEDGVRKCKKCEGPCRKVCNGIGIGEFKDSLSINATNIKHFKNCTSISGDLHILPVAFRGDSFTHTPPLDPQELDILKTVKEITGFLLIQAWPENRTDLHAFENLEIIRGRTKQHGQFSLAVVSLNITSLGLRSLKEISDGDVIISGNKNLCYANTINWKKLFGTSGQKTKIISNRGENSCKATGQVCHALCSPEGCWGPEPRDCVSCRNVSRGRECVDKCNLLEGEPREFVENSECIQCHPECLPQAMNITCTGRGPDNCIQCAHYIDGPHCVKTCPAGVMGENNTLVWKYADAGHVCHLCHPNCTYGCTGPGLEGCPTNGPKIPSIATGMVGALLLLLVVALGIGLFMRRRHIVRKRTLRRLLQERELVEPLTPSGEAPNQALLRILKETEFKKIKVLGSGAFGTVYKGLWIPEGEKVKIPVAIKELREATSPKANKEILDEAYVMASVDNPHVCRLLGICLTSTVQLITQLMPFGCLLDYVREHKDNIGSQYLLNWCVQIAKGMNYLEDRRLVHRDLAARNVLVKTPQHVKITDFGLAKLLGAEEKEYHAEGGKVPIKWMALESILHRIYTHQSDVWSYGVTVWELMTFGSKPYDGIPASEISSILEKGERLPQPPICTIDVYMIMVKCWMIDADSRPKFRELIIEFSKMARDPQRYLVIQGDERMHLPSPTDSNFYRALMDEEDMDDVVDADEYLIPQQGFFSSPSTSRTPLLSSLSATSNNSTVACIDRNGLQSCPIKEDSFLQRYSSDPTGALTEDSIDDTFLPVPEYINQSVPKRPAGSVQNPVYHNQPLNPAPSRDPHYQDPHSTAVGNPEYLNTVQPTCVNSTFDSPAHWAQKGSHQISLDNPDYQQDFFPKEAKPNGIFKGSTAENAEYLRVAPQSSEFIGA
Sequence of HaCaT (EGFR WT) (P00533 25-1210): as above

SMILES	IC50 [1] [nM]	IC50 [2, 7] [µM]	IC50 [2, 8] [µM]	IC50 [3] [nM]	IC50 [4] [nM]	IC50 [5] [nM]	IC50 [6] [nM]
CN(C)C/C=C/C(=O)N1CCCCC(n2c(NC(=O)c3ccnc(P(C)(C)=O)c3)nc3cccc(Cl)c32)C1 (single isomer, unassigned) [Example 21-10A]	> 10000	0.572	6.05	> 10000	1540	–	–
CN(C)C/C=C/C(=O)N1CCCCC(n2c(NC(=O)c3ccnc(P(C)(C)=O)c3)nc3cccc(Cl)c32)C1 (single isomer, unassigned) [Example 21-10B]	6090	0.014	0.222	421	77	–	–
Cc1cc(C(=O)Nc2nc3cccc(Cl)c3n2[C@@H]2CCCCN(C(=O)C3=CCCN(C)C3)C2)ccn1 [Example 3-16]	> 10000	0.36	0.352	899	2530	–	–
Cc1cc(C(=O)Nc2nc3cccc(Cl)c3n2[C@@H]2CCCCN(C(=O)C3=CCN(C)CC3)C2)ccn1 [Example 3-17]	> 10000	1.2	0.676	3480	6400	–	–
Cc1cc(C(=O)Nc2nc3cccc(Cl)c3n2[C@@H]2CCCCN(C(=O)/C=C/C(C)(C)N(C)C)C2)ccn1 [Example 3-18]	> 10000	0.108	0.135	1050	719	480	–
C=CC(=O)N1CCN(C(=O)OC(C)(C)C)CC(n2c(NC(=O)c3ccnc(C)c3)nc3cccc(Cl)c32)C1 (stereo not shown) [Example 12, tert-butyl 4-acryloyl-6-(7-chloro-2-(2-methylisonicotinamido)-1H-benzo[d]imidazol-1-yl)-1,4-diazepane-1-carboxylate]	> 10000	0.016	0.271	50	111	–	–
C=CC(=O)N1CCNCC(n2c(NC(=O)c3ccnc(C)c3)nc3cccc(Cl)c32)C1 (stereo not shown) [Example 13, N-(1-(1-acryloyl-1,4-diazepan-6-yl)-7-chloro-1H-benzo[d]imidazol-2-yl)-2-methylisonicotinamide]	> 10000	0.113	1.63	113	312	–	–
C=CC(=O)N1CCN(C(C)=O)CC(n2c(NC(=O)c3ccnc(C)c3)nc3cccc(Cl)c32)C1 (stereo not shown) [Example 14, N-(1-(1-acetyl-4-acryloyl-1,4-diazepan-6-yl)-7-chloro-1H-benzo[d]imidazol-2-yl)-2-methylisonicotinamide]	2060	0.009	0.16	27	71	–	–
C=CC(=O)N1CCCC[C@@H](n2c(NC(=O)c3cc(C)nc(C)c3)nc3ccc(OCCN4CCCC4)c(Cl)c32)C1 [Example 15, (R)—N-(1-(1-acryloylazepan-3-yl)-7-chloro-6-(2-(pyrrolidin-1-yl)ethoxy)-1H-benzo[d]imidazol-2-yl)-2,6-dimethylisonicotinamide]	139	< 0.001	0.004	1	3	1	–
Cc1cc(C(=O)Nc2nc3cccc(Cl)c3n2[C@@H]2CCCCN(C(=O)/C=C/CN(C3CC3)C3CC3)C2)ccn1 [Example 16, (R,E)-N-(7-chloro-1-(1-(4-(dicyclopropylamino)but-2-enoyl)azepan-3-yl)-1H-benzo[d]imidazol-2-yl)-2-methylisonicotinamide]	1100	0.005	0.045	58	60	–	–
C=CC(=O)N1CCCC[C@@H](n2c(NC(=O)c3cc(C)nc(C)c3)nc3cc(CN4CC[C@H](F)C4)cc(C)c32)C1 [Example 17-158]	67	< 0.001	0.002	< 1	2	–	82
C=CC(=O)N1CCCC[C@@H](n2c(NC(=O)c3cc(C)nc(C)c3)nc3cc(CN4CC[C@@H](F)C4)cc(C)c32)C1 [Example 17-159]	84	< 0.001	0.002	< 1	2	–	70
C/C=C/C(=O)N1CCCC[C@@H](n2c(NC(=O)c3cc(C)nc(C)c3)nc3cc(CN4CC[C@H](OC)C4)ccc32)C1 [Example 17-174]	> 10000	0.01	0.21	93	202	–	> 10000
C=CC(=O)N1CCCC[C@@H](n2c(NC(=O)c3cc(C)nc(C)c3)nc3cc(CN4CC[C@H](OC)C4)ccc32)C1 [Example 17-175]	522	< 0.001	0.004	2	4	–	289
C=CC(=O)N1CCCC[C@@H](n2c(NC(=O)c3cc(C)nc(C)c3)nc3cc(CN4CCN(C)C(=O)C4)cc(C)c32)C1 [Example 17-180]	92	< 0.001	0.003	1	1	1	–
C=CC(=O)N1CCCC[C@@H](n2c(NC(=O)c3cc(C)nc(C)c3)nc3cc(CN4CCN(C(C)=O)CC4)cc(C)c32)C1 [Example 17-181]	77	< 0.001	0.003	1	1	1	–
Cc1cc(C(=O)Nc2nc3cccc(Cl)c3n2[C@@H]2CCCCN(C(=O)/C=C/CN(C)C)C2)cc(P(C)(C)=O)n1 [Example 17-182]	> 10000	0.022	0.472	770	422	–	–
Cc1cc(C(=O)Nc2nc3cccc(Cl)c3n2[C@@H]2CCCCN(C(=O)/C=C/CN(C)C(=O)OC(C)(C)C)C2)ccn1 [Example 17-184]	> 10000	5.84	16.1	3740	4840	–	–
Cc1cc(C(=O)Nc2nc3cccc(C(F)(F)F)c3n2[C@@H]2CCCCN(C(=O)/C=C/CN(C)C)C2)ccn1 [Example 17-187]	475	0.001	0.022	13	14	2	–
Cc1cc(C(=O)Nc2nc3cccc(C(F)(F)F)c3n2[C@@H]2CCCCN(C(=O)/C=C/CN(C)C)C2)cc(C)n1 [Example 17-188]	870	0.003	0.04	16	39	10	–
Cc1cc(C(=O)Nc2nc3cccc(Cl)c3n2[C@@H]2CCCCN(C(=O)/C=C/CNC3CC3)C2)ccn1 [Example 17-190]	47	< 0.001	0.003	2	3	–	–
Cc1cc(C(=O)Nc2nc3cccc(Cl)c3n2[C@@H]2CCCCN(C(=O)/C=C/CNC(C)(C)C)C2)ccn1 [Example 17-191]	59	< 0.001	0.004	2	3	–	–
Cc1cc(C(=O)Nc2nc3cccc(Cl)c3n2[C@@H]2CCCCN(C(=O)/C=C/CNC3(C)CC3)C2)ccn1 [Example 17-192]	37	< 0.001	0.003	2	2	–	–
Cc1cc(C(=O)Nc2nc3cccc(Cl)c3n2[C@H]2CCCCN(C(=O)/C=C/CN(C)C)C2)cc(C)n1 [Example 17-197]	> 10000	0.117	1.67	935	2000	–	–
